The values below come from patent US10821080B2, “Microencapsulation process with solvent and salt” (Evonik Corporation, priority 2008, dated 2020).

Structures are written as SMILES.

This data set is described as follows: Equilibrium/saturation study of solvent solubility in PVA solutions with increasing salt concentration. The format is physicochemical. The method, then: An equilibrium/saturation study was performed to measure solvent solubilities in PVA solutions in increasing salt concentration levels. The saturation solubility in weight % of ethyl acetate and methylene chloride were individually tested with varying sodium chloride weight % in a 2% PVA aqueous solution. […] At about 15 weight % sodium chloride contention, the PVA began to salt out of the solution.

For the compound `CCOC(C)=O` [ethyl acetate], the “saturation solubility in weight % as the sodium chloride content was increased” value was “decreased”.
